Measured values: ChEMBL document CHEMBL1127237, “Analogs of UK 14,304 as 2-adrenoceptor agonists. Twist and agent polarity as design elements” (Bioorg Med Chem Lett, 1994)

Legend:
[1] = target: T1, Adrenergic receptor alpha-1 (Homo sapiens, UniProt P35348+P25100+P35368); experiment: Binding affinity towards Alpha-1 adrenergic receptor in human brain
T1 sequence (P35348 whole entry): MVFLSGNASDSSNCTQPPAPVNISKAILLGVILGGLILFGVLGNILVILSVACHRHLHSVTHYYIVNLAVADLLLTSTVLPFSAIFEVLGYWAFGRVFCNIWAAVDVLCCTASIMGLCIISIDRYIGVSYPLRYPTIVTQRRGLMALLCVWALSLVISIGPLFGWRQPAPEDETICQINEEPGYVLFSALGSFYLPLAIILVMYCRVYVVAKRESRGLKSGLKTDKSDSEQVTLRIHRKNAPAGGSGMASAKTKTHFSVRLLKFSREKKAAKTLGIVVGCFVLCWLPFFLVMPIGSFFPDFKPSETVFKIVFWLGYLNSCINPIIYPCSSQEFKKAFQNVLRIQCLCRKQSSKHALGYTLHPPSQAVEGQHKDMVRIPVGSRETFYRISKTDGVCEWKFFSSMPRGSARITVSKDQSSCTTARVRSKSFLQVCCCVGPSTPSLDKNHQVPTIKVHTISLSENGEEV
T1 sequence (P25100 whole entry): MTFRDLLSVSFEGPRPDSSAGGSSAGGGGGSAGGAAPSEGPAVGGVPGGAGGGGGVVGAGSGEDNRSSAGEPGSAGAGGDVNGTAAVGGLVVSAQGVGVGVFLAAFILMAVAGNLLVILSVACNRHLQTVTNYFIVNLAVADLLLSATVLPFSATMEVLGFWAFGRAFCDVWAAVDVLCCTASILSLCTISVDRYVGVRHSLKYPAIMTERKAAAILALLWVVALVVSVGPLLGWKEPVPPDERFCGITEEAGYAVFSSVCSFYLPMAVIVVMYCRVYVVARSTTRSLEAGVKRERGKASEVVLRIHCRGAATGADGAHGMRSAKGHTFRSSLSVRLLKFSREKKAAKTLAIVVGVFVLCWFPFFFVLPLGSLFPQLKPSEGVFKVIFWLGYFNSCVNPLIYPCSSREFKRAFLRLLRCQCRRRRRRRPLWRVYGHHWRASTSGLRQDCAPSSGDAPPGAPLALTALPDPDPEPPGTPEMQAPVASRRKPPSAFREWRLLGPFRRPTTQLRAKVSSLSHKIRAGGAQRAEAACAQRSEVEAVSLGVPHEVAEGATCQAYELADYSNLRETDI
T1 sequence (P35368 whole entry): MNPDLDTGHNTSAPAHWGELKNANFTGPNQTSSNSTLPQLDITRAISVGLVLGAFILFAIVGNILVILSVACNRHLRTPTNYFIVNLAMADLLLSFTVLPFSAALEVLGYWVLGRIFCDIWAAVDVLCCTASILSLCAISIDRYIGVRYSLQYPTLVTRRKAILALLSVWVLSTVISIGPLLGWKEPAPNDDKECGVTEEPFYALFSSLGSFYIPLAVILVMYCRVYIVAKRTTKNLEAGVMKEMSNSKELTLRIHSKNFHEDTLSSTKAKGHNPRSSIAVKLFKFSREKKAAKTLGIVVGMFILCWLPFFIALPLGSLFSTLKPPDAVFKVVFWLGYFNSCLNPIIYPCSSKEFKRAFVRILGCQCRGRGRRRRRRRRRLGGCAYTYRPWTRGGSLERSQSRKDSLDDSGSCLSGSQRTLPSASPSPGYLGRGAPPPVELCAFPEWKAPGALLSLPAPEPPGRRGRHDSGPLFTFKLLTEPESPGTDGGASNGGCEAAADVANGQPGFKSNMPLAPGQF

[2] = target: T2, Adrenergic receptor alpha-2 (Homo sapiens, UniProt P08913+P18825+P18089); experiment: Binding affinity towards Alpha-2 adrenergic receptor in HT-29 cells; assay type: cell-based
T2 sequence (P08913 whole entry): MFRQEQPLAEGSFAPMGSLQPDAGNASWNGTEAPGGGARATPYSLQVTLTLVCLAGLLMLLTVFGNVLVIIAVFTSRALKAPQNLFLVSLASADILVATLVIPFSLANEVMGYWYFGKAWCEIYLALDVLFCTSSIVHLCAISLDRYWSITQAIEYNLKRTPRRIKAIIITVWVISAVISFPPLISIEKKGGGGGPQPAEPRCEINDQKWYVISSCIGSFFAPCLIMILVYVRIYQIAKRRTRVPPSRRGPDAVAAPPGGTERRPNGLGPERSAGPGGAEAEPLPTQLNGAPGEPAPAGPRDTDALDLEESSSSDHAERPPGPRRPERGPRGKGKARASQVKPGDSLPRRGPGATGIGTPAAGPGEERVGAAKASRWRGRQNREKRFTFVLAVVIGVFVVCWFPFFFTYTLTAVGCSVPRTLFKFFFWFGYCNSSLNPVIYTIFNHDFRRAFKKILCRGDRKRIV
T2 sequence (P18825 whole entry): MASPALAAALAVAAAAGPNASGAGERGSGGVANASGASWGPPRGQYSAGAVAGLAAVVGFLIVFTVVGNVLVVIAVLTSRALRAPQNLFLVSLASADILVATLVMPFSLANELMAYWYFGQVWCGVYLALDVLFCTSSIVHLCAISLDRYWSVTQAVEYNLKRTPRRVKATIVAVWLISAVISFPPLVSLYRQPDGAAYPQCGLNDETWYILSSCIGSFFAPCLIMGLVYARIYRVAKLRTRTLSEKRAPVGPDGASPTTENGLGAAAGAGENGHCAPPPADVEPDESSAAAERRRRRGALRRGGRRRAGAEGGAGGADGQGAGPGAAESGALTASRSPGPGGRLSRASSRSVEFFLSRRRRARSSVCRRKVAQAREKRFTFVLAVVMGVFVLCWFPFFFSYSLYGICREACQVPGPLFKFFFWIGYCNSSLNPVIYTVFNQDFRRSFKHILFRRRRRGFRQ
T2 sequence (P18089 whole entry): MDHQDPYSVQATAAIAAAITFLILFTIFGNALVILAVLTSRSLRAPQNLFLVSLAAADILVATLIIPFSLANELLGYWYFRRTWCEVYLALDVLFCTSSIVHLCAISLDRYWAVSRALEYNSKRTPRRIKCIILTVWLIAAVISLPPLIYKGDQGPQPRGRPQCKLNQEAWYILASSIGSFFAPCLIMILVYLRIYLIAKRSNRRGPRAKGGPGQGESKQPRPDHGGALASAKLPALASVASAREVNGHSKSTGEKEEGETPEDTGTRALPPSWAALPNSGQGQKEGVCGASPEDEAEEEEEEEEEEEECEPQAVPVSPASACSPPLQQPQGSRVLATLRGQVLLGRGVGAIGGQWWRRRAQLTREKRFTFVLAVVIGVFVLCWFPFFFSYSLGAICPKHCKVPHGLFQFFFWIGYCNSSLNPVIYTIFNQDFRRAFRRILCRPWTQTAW

[3] = Distribution coefficient between octanol and pH 7.2 phosphate buffer; assay type: physicochemical; settings: for logD: octanol/phosphate buffer

Row | Ki [1] | Ki [2] | logD [3] | SMILES | Log DC ([3]; octanol/water)
1 | 8.7 µM | 0.0068 µM | -2.08 | Cc1c(NC2=NCCN2)ccc2c1NCCN2 | 
2 | 1.1 µM | 0.006 µM | -1.74 | Brc1c(NC2=NCCN2)ccc2c1NCCN2 | 

Further lines, the compound ahead of its results:

Row | SMILES | Ki [1] | Ki [2] | logD [3] | Log DC ([3]; octanol/water)
3 | c1cc2c(cc1NC1=NCCN1)NCCN2 | 5.1 µM | 0.046 µM |  | 
4 | Cc1c(NC2=NCCN2)ccc2nccnc12 | 1.4 µM | 0.0013 µM | 0.16 | 
5 | c1cnc2cc(NC3=NCCN3)ccc2n1 | 11 µM | 0.064 µM |  | 
6 | Brc1c(NC2=NCCN2)ccc2nccnc12 [BRIMONIDINE] |  |  |  | 1.5
